Test results reported in US11780851B2, “LRRK2 inhibitors” (H. Lundbeck A/S, priority 2021, dated 2023).

Tests used:
LRRK2 WT = target: T1, LRRK2 WT (Homo sapiens, UniProt Q5S007); test: LRRK2 wild-type kinase activity assay (LanthaScreen TR-FRET); assay type: biochemical; conditions: 1 nM LRRK2 WT, 1.3 mM ATP, 3.5 h at 30° C.; n≥2 tests
T1 construct: comprises residue 970 to 2527 of the full length human wild-type LRRK2 kinase; purchased Invitrogen (Life Technologies Corporation)
Protocol: (§1) LRRK2 kinase activity was measured using a LanthaScreen kinase activity assay available from Invitrogen (Life Technologies Corporation). The assay is a homogeneous time resolved-fluorescence resonance energy transfer (TR-FRET) assay that measures phosphorylation of a fluorescein-labelled peptide substrate Fluorescein-ERM LRRKtide obtainable from Life Technologies Corporation as a result of LRRK2 kinase activity. The phosphorylated peptide is recognized by a terbium-labelled phospho-specific anti-LRRKtide antibody (pLRRKtide antibody), obtainable from Life Technologies Corporation and, subsequently, the phosphorylated LRRKtide can be quantified by the extent of TR-FRET between the terbium donor and fluorescein acceptor. The LRRK2 kinase was obtained from Invitrogen (Life Technologies Corporation) and comprises residue 970 to 2527 of the full length human wild-type LRRK2 kinase, or a similar sequence with the G2019S mutation. As discussed above, this mutation increases the kinase activity relative to the wild type. The kinase reactions were performed in a 20 μL volume in 384-well plates. […] The mixture was further incubated for 30 minutes at RT. […] The measurement was repeated 30 times for fluorescein and 30 times for terbium emission with a 1000 μs time window between repeats. TR-FRET measurements were performed on a Biotek Synergy plate. The TR-FRET signal was calculated as the emission-ratio at 520 nm over 495 nm. The TR-FRET ratio readout for test compounds was normalized to 0% inhibition corresponding to TR-FRET ratio measured in control wells with no inhibition of the kinase activity and 100% inhibition corresponding to TR-FRET ratio measured in control wells with inhibitor. […] C is the IC50 value and D is the Hill slope coefficient. IC50 estimates were obtained from independent experiment and the logarithmic average was calculated.

LRRK2 G2019S = target: T2, LRRK2 G2019S (Homo sapiens, UniProt Q5S007, G2019S); test: LRRK2 G2019S kinase activity assay (LanthaScreen TR-FRET); assay type: biochemical; conditions: 250 pM LRRK2 G2019S, 1.3 mM ATP, 3 h at 30° C.; n≥2 tests
T2 construct: purchased Invitrogen (Life Technologies Corporation)
Protocol: as §1

T2 sequence (Q5S007 970-2527 G2019S): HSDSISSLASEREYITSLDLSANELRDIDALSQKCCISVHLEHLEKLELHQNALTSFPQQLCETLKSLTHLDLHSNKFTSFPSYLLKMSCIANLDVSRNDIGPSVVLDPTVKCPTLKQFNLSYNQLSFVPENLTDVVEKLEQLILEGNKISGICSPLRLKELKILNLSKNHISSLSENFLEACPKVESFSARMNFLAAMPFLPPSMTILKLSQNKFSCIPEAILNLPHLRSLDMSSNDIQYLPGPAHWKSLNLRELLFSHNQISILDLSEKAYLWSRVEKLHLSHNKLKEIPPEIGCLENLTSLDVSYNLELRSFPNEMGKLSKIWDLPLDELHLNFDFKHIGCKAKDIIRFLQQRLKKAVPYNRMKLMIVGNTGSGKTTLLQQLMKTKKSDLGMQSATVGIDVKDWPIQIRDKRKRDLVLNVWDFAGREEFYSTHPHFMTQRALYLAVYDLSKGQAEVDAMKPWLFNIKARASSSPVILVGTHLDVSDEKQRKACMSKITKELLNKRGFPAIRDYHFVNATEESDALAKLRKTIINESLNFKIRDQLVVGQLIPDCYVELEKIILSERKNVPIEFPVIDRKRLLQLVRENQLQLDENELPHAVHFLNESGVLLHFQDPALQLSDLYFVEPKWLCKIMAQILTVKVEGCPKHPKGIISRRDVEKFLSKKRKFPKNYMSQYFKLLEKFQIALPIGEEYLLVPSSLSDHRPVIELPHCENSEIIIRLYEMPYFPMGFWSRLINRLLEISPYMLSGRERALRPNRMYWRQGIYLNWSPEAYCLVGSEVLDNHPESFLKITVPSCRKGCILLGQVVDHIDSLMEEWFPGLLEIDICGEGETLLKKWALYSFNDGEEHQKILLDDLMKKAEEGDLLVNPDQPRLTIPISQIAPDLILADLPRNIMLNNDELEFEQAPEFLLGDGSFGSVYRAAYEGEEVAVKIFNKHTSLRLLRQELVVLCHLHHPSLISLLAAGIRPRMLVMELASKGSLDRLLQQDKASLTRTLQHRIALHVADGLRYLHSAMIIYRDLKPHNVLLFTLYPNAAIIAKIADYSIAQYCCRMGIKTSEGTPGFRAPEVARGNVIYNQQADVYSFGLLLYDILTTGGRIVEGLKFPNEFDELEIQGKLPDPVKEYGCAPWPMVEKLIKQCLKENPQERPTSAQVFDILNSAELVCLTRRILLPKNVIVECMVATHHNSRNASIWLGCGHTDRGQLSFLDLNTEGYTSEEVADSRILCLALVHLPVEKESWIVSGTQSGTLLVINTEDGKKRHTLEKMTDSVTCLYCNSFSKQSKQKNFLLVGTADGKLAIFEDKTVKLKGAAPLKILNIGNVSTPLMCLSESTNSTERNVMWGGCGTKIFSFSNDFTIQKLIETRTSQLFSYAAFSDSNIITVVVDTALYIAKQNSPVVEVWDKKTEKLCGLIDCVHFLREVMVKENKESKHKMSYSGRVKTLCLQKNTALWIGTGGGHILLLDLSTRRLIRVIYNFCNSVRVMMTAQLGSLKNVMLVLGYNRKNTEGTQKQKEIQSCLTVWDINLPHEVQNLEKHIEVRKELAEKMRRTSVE
T1 sequence (Q5S007 970-2527): as the sequence (Q5S007 970-2527 G2019S) above, with S1050G counted along it

SMILES	IC50 (LRRK2 WT) [nM]	IC50 (LRRK2 G2019S) [nM]
Cc1c2c(nn1[C@@H]1CCOC[C@@H]1C)OCCCn1nc(Cl)c3cnc(nc31)N2 (single isomer, unassigned) [Example 21, 8-Chloro-3-methyl-2-((3R,4S) or (3S,4R) or (3S,4S) or (3R,4R)-3-methyltetrahydro-2H-pyran-4-yl)-2,4,12,13-tetrahydro-11H-5,7-(azenometheno)dipyrazolo[3,4-b:5′,1′-g][1]oxa[4,6,8]triazacycloundecine]	10	3.7
Cc1c2c(nn1[C@@H]1CCOC[C@@H]1C)OCCCn1nc(Cl)c3cnc(nc31)N2 (single isomer, unassigned) [Example 22, 8-Chloro-3-methyl-2-((3R,4S) or (3S,4R) or (3S,4S) or (3R,4R)-3-methyltetrahydro-2H-pyran-4-yl)-2,4,12,13-tetrahydro-11H-5,7-(azenometheno)dipyrazolo[3,4-b:5′,1′-g][1]oxa[4,6,8]triazacycloundecine]	10	3.5
Cc1c2c(nn1[C@@H]1CCOC[C@@H]1C)OCCCn1nc(Cl)c3cnc(nc31)N2 (single isomer, unassigned) [Example 23, 8-Chloro-3-methyl-2-((3R,4S) or (3S,4R) or (3S,4S) or (3R,4R)-3-methyltetrahydro-2H-pyran-4-yl)-2,4,12,13-tetrahydro-11H-5,7-(azenometheno)dipyrazolo[3,4-b:5′,1′-g][1]oxa[4,6,8]triazacycloundecine]	44	20
Cc1c2c(nn1[C@@H]1CCOC[C@@H]1C)OCCCn1nc(Cl)c3cnc(nc31)N2 (single isomer, unassigned) [Example 24, 8-Chloro-3-methyl-2-((3R,4S) or (3S,4R) or (3S,4S) or (3R,4R)-3-methyltetrahydro-2H-pyran-4-yl)-2,4,12,13-tetrahydro-11H-5,7-(azenometheno)dipyrazolo[3,4-b:5′,1′-g][1]oxa[4,6,8]triazacycloundecine]	14	4.7
Cc1c2c(nn1[C@H]1CCCCOC1)OCCCn1nc(Cl)c3cnc(nc31)N2 (single isomer, unassigned) [Example 28, (+)-(R) or (S)-8-Chloro-3-methyl-2-(oxepan-3-yl)-2,4,12,13-tetrahydro-11H-5,7-(azenometheno)dipyrazolo[3,4-b:5′,1′-g][1]oxa[4,6,8]triazacycloundecine]	19	5.3
Cc1c2c(nn1[C@@H]1CC1(F)F)OCCCn1nc(Cl)c3cnc(nc31)N2 (single isomer, unassigned) [Example 39, (−)-(R) or (S)-8-Chloro-2-(2,2-difluorocyclopropyl)-3-methyl-2,4,12,13-tetrahydro-11H-5,7-(azenometheno)dipyrazolo[3,4-b:5′,1′-g][1]oxa[4,6,8]triazacycloundecine]	19	7.8
Cc1c2c(nn1[C@H]1CCOC(C)(C)C1)OCCCn1nc(Cl)c3cnc(nc31)N2 (single isomer, unassigned) [Example 43, (−)-(R) or (S)-8-Chloro-2-(2,2-dimethyltetrahydro-2H-pyran-4-yl)-3-methyl-2,4,12,13-tetrahydro-11H-5,7-(azenometheno)dipyrazolo[3,4-b:5′,1′-g][1]oxa[4,6,8]triazacycloundecine]	17	5.3
Cc1c2c(nn1[C@H]1CCOC[C@]1(C)F)OCCCn1nc(Cl)c3cnc(nc31)N2 (single isomer, unassigned) [Example 48, (−)-8-Chloro-2-((3R,4S) or (3S,4R)-3-Fluoro-3-methyltetrahydro-2H-pyran-4-yl)-3-methyl-2,4,12,13-tetrahydro-11H-5,7-(azenometheno)dipyrazolo[3,4-b:5′,1′-g][1]oxa[4,6,8]triazacycloundecine]	90	18
Cc1c2c(nn1[C@@H]1CCOC3(CC3)C1)OCCCn1nc(Cl)c3cnc(nc31)N2 (single isomer, unassigned) [Example 54, (−)-(R) or (S)-8-Chloro-3-methyl-2-(4-oxaspiro[2.5]octan-7-yl)-2,4,12,13-tetrahydro-11H-5,7-(azenometheno)dipyrazolo[3,4-b:5′,1′-g][1]oxa[4,6,8]triazacycloundecine]	2.6	0.88
CCc1c2c(nn1[C@@H]1CCOC[C@H]1F)OCCCn1nc(Cl)c3cnc(nc31)N2 (single isomer, unassigned) [Example 55, (+)-8-Chloro-3-ethyl-2-((3R,4S) or (3S,4R)-3-fluorotetrahydro-2H-pyran-4-yl)-2,4,12,13-tetrahydro-11H-5,7-(azenometheno)dipyrazolo[3,4-b:5′,1′-g][1]oxa[4,6,8]triazacycloundecine]	5.6	1.5
CCc1c2c(nn1[C@@H]1CCOC[C@H]1F)OCCCn1nc(Cl)c3cnc(nc31)N2 (single isomer, unassigned) [Example 56, (−)-8-Chloro-3-ethyl-2-((3R,4S) or (3S,4R)-3-fluorotetrahydro-2H-pyran-4-yl)-2,4,12,13-tetrahydro-11H-5,7-(azenometheno)dipyrazolo[3,4-b:5′,1′-g][1]oxa[4,6,8]triazacycloundecine]	4.9	2
[2H]C([2H])([2H])c1c2c(nn1[C@@H]1CCOC[C@H]1F)OCCCn1nc(Cl)c3cnc(nc31)N2 (single isomer, unassigned) [Example 63, (+)-8-Chloro-2-((3R,4S) or (3S,4R)-3-fluorotetrahydro-2H-pyran-4-yl)-3-(methyl-d3)-2,4,12,13-tetrahydro-11H-5,7-(azenometheno)dipyrazolo[3,4-b:5′,1′-g][1]oxa[4,6,8]triazacycloundecine]	11	4
[2H]C([2H])([2H])c1c2c(nn1[C@H]1CCOC3(CC3)C1)OCCCn1nc(Cl)c3cnc(nc31)N2 (single isomer, unassigned) [Example 64, (−)-(R) or (S)-8-Chloro-3-(methyl-d3)-2-(4-oxaspiro[2.5]octan-7-yl)-2,4,12,13-tetrahydro-11H-5,7-(azenometheno)dipyrazolo[3,4-b:5′,1′-g][1]oxa[4,6,8]triazacycloundecine]	11	5
[2H]C([2H])([2H])c1c2c(nn1[C@H]1CCOC3(CC3)C1)OCCCn1nc(Cl)c3cnc(nc31)N2 (single isomer, unassigned) [Example 65, (+)-(R) or (S)-8-Chloro-3-(methyl-d3)-2-(4-oxaspiro[2.5]octan-7-yl)-2,4,12,13-tetrahydro-11H-5,7-(azenometheno)dipyrazolo[3,4-b:5′,1′-g][1]oxa[4,6,8]triazacycloundecine]	4.8	1.7
Cc1c2c(nn1C)OCCCn1nc(Cl)c3cnc(nc31)N2 [Example 1, 8-Chloro-2,3-dimethyl-2,4,12,13-tetrahydro-11H-5,7-(azenometheno)dipyrazolo[3,4-b:5′,1′-g][1]oxa[4,6,8]triazacycloundecine]	55	18
Cc1nn2c3nc(ncc13)Nc1c(nn(C3CCOCC3)c1C)OCCC2 [Example 8, 3,8-Dimethyl-2-(tetrahydro-2H-pyran-4-yl)-2,4,12,13-tetrahydro-11H-5,7-(azenometheno)dipyrazolo[3,4-b:5′,1′-g][1]oxa[4,6,8]triazacycloundecine]	93	21
Cc1c2c(nn1C1CCOCC1)OCCCn1nc(C#N)c3cnc(nc31)N2 [Example 9, 3-Methyl-2-(tetrahydro-2H-pyran-4-yl)-2,4,12,13-tetrahydro-11H-5,7-(azenometheno)dipyrazolo[3,4-b:5′,1′-g][1]oxa[4,6,8]triazacycloundecine-8-carbonitrile]	110	57
Cc1c2c(nn1CC13CC(CO1)C3)OCCCn1nc(Cl)c3cnc(nc31)N2 [Example 11, 2-((2-Oxabicyclo[2.1.1]hexan-1-yl)methyl)-8-chloro-3-methyl-2,4,12,13-tetrahydro-11H-5,7-(azenometheno)dipyrazolo[3,4-b:5′,1′-g][1]oxa[4,6,8]triazacycloundecine]	14	4.6
FC1(c2c3c(nn2C2CCOCC2)OCCCn2nc(Cl)c4cnc(nc42)N3)CC1 [Example 16, 8-Chloro-3-(1-fluorocyclopropyl)-2-(tetrahydro-2H-pyran-4-yl)-2,4,12,13-tetrahydro-11H-5,7-(azenometheno)dipyrazolo[3,4-b:5′,1′-g][1]oxa[4,6,8]triazacycloundecine]	60	16
[2H]C1([2H])Oc2nn(C3CCOCC3)c(C)c2Nc2ncc3c(Cl)nn(c3n2)C([2H])([2H])C1([2H])[2H] [Example 20, 8-Chloro-3-methyl-2-(tetrahydro-2H-pyran-4-yl)-2,4,12,13-tetrahydro-11H-5,7-(azenometheno)dipyrazolo[3,4-b:5′,1′-g][1]oxa[4,6,8]triazacycloundecine-11,11,12,12,13,13-d6]	14	5.1
